# From patent US20260345517A1, “DOSAGE REGIMENS FOR TREATING STARGARDT DISEASE” (Alkeus Pharmaceuticals, Inc., priority 2024, published 2026)
# Assay: TEASE-1: safety and adverse events
# Type: in vivo, human
# Protocol: The Tolerability and Effects of gildeuretinol acetate in Stargardt Disease (Clinical trial group 1 also known as TEASE-1) was a 24-month, multicenter, double-masked, placebo-controlled trial designed to evaluate the efficacy and safety of daily oral gildeuretinol acetate in slowing the growth of atrophic retinal lesions in Stargardt disease patients. The trial was conducted at multiple sites in the United States (NCT02402660).
# Patients 12 years or older, clinically diagnosed with Stargardt disease, with at least one ABCA4 mutation, at least one eye presenting with well-demarcated areas of reduced fundus autofluorescence, and with any visual acuity, were eligible.
# Patients were randomized to gildeuretinol acetate 14 mg capsules, gildeuretinol acetate 24 mg capsules, or placebo capsules, to be taken once daily for one year. After one year, 50% of randomly selected patients receiving placebo were crossed over in a 1:1 ratio to gildeuretinol acetate 14 mg capsules or gildeuretinol acetate 24 mg capsules for a second year.
# Gildeuretinol acetate and placebo capsules were identical appearing capsules. Patients were advised to avoid vitamin A-containing supplements and liver-based products. Fruits and vegetables contain beta-carotene, not preformed vitamin A, and could be consumed without limitation. Trial visits occurred at 8 weeks and 6, 12, 18, and 24 months following screening and randomization.
structure (smiles),measurement,setting,value
"CC(=O)OC/C=C(C)/C=C/C=C(C)/C=C/C1=C(C)CCCC1(C)C [gildeuretinol acetate, C20-D3-retinol acetate]",Inflammation,"24 mg, N = 15",0 patients (%)
same,Influenza,"24 mg, N = 15",1 (6.7) patients (%)
same,Insomnia,"24 mg, N = 15",0 patients (%)
same,Intracranial pressure increased,"24 mg, N = 15",1 (6.7) patients (%)
same,Irritability,"24 mg, N = 15",0 patients (%)
same,Jaw operation,"24 mg, N = 15",1 (6.7) patients (%)
same,Knee arthroplasty,"24 mg, N = 15",0 patients (%)
same,Laryngitis,"24 mg, N = 15",0 patients (%)
same,Lip swelling,"24 mg, N = 15",0 patients (%)
same,Low density lipoprotein increased,"24 mg, N = 15",0 patients (%)
same,Muscle spasms,"24 mg, N = 15",0 patients (%)
same,Muscle strain,"24 mg, N = 15",0 patients (%)
same,Musculoskeletal pain,"24 mg, N = 15",1 (6.7) patients (%)
same,Nasopharyngitis,"24 mg, N = 15",3 (20.0) patients (%)
same,Nausea,"24 mg, N = 15",1 (6.7) patients (%)
same,Neck pain,"24 mg, N = 15",0 patients (%)
same,Nephrolithiasis,"24 mg, N = 15",0 patients (%)
same,Nerve compression,"24 mg, N = 15",0 patients (%)
same,Neuralgia,"24 mg, N = 15",0 patients (%)
same,Obsessive-compulsive disorder,"24 mg, N = 15",0 patients (%)
same,Oropharyngeal pain,"24 mg, N = 15",3 (20.0) patients (%)
same,Osteoporosis,"24 mg, N = 15",1 (6.7) patients (%)
same,Pain,"24 mg, N = 15",0 patients (%)
same,Pain in extremity,"24 mg, N = 15",2 (13.3) patients (%)
same,Pain in jaw,"24 mg, N = 15",0 patients (%)
same,Peripheral coldness,"24 mg, N = 15",0 patients (%)
same,Pharyngitis streptococcal,"24 mg, N = 15",0 patients (%)
same,Photophobia,"24 mg, N = 15",0 patients (%)
same,Photopsia,"24 mg, N = 15",0 patients (%)
same,Plantar fasciitis,"24 mg, N = 15",0 patients (%)
same,Pleurisy,"24 mg, N = 15",0 patients (%)
same,Pneumonia,"24 mg, N = 15",0 patients (%)
same,Premenstrual syndrome,"24 mg, N = 15",1 (6.7) patients (%)
same,Punctate keratitis,"24 mg, N = 15",0 patients (%)
same,Pyrexia,"24 mg, N = 15",1 (6.7) patients (%)
same,Radius fracture,"24 mg, N = 15",0 patients (%)
same,Rash,"24 mg, N = 15",0 patients (%)
same,Rotator cuff syndrome,"24 mg, N = 15",1 (6.7) patients (%)
same,Sialoadenitis,"24 mg, N = 15",0 patients (%)
same,Sinus congestion,"24 mg, N = 15",1 (6.7) patients (%)
same,Sinusitis,"24 mg, N = 15",0 patients (%)
same,Sjogren's syndrome,"24 mg, N = 15",0 patients (%)
same,Skin infection,"24 mg, N = 15",0 patients (%)
same,Subdural haematoma,"24 mg, N = 15",0 patients (%)
same,Syncope,"24 mg, N = 15",1 (6.7) patients (%)
same,Tendonitis,"24 mg, N = 15",0 patients (%)
same,Thoracic outlet syndrome,"24 mg, N = 15",0 patients (%)
same,Tongue dry,"24 mg, N = 15",0 patients (%)
same,Tooth abscess,"24 mg, N = 15",1 (6.7) patients (%)
same,Tooth extraction,"24 mg, N = 15",1 (6.7) patients (%)
same,Toothache,"24 mg, N = 15",0 patients (%)
same,Upper respiratory tract infection,"24 mg, N = 15",1 (6.7) patients (%)
same,Vision blurred,"24 mg, N = 15",0 patients (%)
same,Visual field defect,"24 mg, N = 15",0 patients (%)
same,Visual impairment,"24 mg, N = 15",0 patients (%)
same,Vitamin B12 deficiency,"24 mg, N = 15",0 patients (%)
same,Vitamin D decreased,"24 mg, N = 15",1 (6.7) patients (%)
same,Vitreous floaters,"24 mg, N = 15",0 patients (%)
same,Vulvovaginal candidiasis,"24 mg, N = 15",1 (6.7) patients (%)
same,Wrist fracture,"24 mg, N = 15",0 patients (%)
same,Xanthelasma,"24 mg, N = 15",1 (6.7) patients (%)
same,elevated intracranial pressure,"24 mg, one patient",Elevated intracranial pressure was measured
same,papilledema grade (modified Frisen scale) with elevated intracranial pressure,"24 mg, one patient, resolved upon temporary interruption and acetazolamide",Grade 1
same,Abdominal discomfort,"crossover, N = 10",1 (10.0) patients (%)
same,Abdominal distension,"crossover, N = 10",0 patients (%)
same,Abdominal pain upper,"crossover, N = 10",0 patients (%)
same,Abnormal dreams,"crossover, N = 10",0 patients (%)
same,"Adverse events, Overall","crossover, N = 10",8 (80) patients (%)
same,Alanine aminotransferase increased,"crossover, N = 10",1 (10.0) patients (%)
same,Alopecia,"crossover, N = 10",0 patients (%)
same,Ankle fracture,"crossover, N = 10",0 patients (%)
same,Arthralgia,"crossover, N = 10",1 (10.0) patients (%)
same,Arthritis,"crossover, N = 10",1 (10.0) patients (%)
same,Aspartate aminotransferase increased,"crossover, N = 10",1 (10.0) patients (%)
same,Back injury,"crossover, N = 10",0 patients (%)
same,Back pain,"crossover, N = 10",0 patients (%)
same,Blepharospasm,"crossover, N = 10",1 (10.0) patients (%)
same,Blood cholesterol increased,"crossover, N = 10",0 patients (%)
same,Blood creatinine increased,"crossover, N = 10",0 patients (%)
same,Blood iron decreased,"crossover, N = 10",0 patients (%)
same,Blood pressure increased,"crossover, N = 10",0 patients (%)
same,Blood triglycerides increased,"crossover, N = 10",0 patients (%)
same,Bowel movement irregularity,"crossover, N = 10",0 patients (%)
same,Bronchitis,"crossover, N = 10",0 patients (%)
same,Cartilage injury,"crossover, N = 10",0 patients (%)
same,Conjunctival laceration,"crossover, N = 10",0 patients (%)
same,Conjunctivitis,"crossover, N = 10",0 patients (%)
same,Constipation,"crossover, N = 10",0 patients (%)
same,Cough,"crossover, N = 10",0 patients (%)
same,Death,"crossover, N = 10",0 patients (%)
same,Depression,"crossover, N = 10",0 patients (%)
same,Diarrhoea,"crossover, N = 10",1 (10.0) patients (%)
same,Diplopia,"crossover, N = 10",0 patients (%)
same,Dry eye,"crossover, N = 10",0 patients (%)
same,Dry mouth,"crossover, N = 10",0 patients (%)
same,Dry skin,"crossover, N = 10",0 patients (%)
same,Ear discomfort,"crossover, N = 10",0 patients (%)
same,Ear infection,"crossover, N = 10",1 (10.0) patients (%)
same,Ear pain,"crossover, N = 10",0 patients (%)
same,Eczema,"crossover, N = 10",1 (10.0) patients (%)
same,Electrocardiogram abnormal,"crossover, N = 10",1 (10.0) patients (%)
same,Erythema,"crossover, N = 10",0 patients (%)
same,Eye irritation,"crossover, N = 10",0 patients (%)
same,Eye pain,"crossover, N = 10",0 patients (%)
same,Eye pruritus,"crossover, N = 10",0 patients (%)
same,Face injury,"crossover, N = 10",0 patients (%)
same,Faeces soft,"crossover, N = 10",0 patients (%)
same,Fall,"crossover, N = 10",0 patients (%)
same,Gastroenteritis,"crossover, N = 10",1 (10.0) patients (%)
same,Gastroenteritis viral,"crossover, N = 10",0 patients (%)
same,Hair texture abnormal,"crossover, N = 10",0 patients (%)
same,Hand fracture,"crossover, N = 10",0 patients (%)
same,Headache,"crossover, N = 10",0 patients (%)
same,Herpes zoster,"crossover, N = 10",0 patients (%)
same,Hordeolum,"crossover, N = 10",0 patients (%)
same,Hypertension,"crossover, N = 10",0 patients (%)
same,Hypobarism,"crossover, N = 10",0 patients (%)
same,Hypothyroidism,"crossover, N = 10",0 patients (%)
same,Hysterectomy,"crossover, N = 10",0 patients (%)
same,Inflammation,"crossover, N = 10",0 patients (%)
same,Influenza,"crossover, N = 10",0 patients (%)
same,Insomnia,"crossover, N = 10",0 patients (%)
same,Intracranial pressure increased,"crossover, N = 10",0 patients (%)
same,Irritability,"crossover, N = 10",0 patients (%)
same,Jaw operation,"crossover, N = 10",0 patients (%)
same,Knee arthroplasty,"crossover, N = 10",0 patients (%)
same,Laryngitis,"crossover, N = 10",0 patients (%)
same,Lip swelling,"crossover, N = 10",0 patients (%)
same,Low density lipoprotein increased,"crossover, N = 10",0 patients (%)
same,Muscle spasms,"crossover, N = 10",0 patients (%)
same,Muscle strain,"crossover, N = 10",0 patients (%)
same,Musculoskeletal pain,"crossover, N = 10",0 patients (%)
same,Nasopharyngitis,"crossover, N = 10",1 (10.0) patients (%)
same,Nausea,"crossover, N = 10",0 patients (%)
same,Neck pain,"crossover, N = 10",0 patients (%)
same,Nephrolithiasis,"crossover, N = 10",1 (10.0) patients (%)
same,Nerve compression,"crossover, N = 10",0 patients (%)
same,Neuralgia,"crossover, N = 10",0 patients (%)
same,Obsessive-compulsive disorder,"crossover, N = 10",0 patients (%)
same,Oropharyngeal pain,"crossover, N = 10",1 (10.0) patients (%)
same,Osteoporosis,"crossover, N = 10",0 patients (%)
same,Pain,"crossover, N = 10",0 patients (%)
same,Pain in extremity,"crossover, N = 10",0 patients (%)
same,Pain in jaw,"crossover, N = 10",0 patients (%)
same,Peripheral coldness,"crossover, N = 10",0 patients (%)
same,Pharyngitis streptococcal,"crossover, N = 10",0 patients (%)
same,Photophobia,"crossover, N = 10",0 patients (%)
same,Photopsia,"crossover, N = 10",0 patients (%)
same,Plantar fasciitis,"crossover, N = 10",0 patients (%)
same,Pleurisy,"crossover, N = 10",1 (10.0) patients (%)
same,Pneumonia,"crossover, N = 10",1 (10.0) patients (%)
same,Premenstrual syndrome,"crossover, N = 10",0 patients (%)
same,Punctate keratitis,"crossover, N = 10",0 patients (%)
same,Pyrexia,"crossover, N = 10",0 patients (%)
same,Radius fracture,"crossover, N = 10",0 patients (%)
same,Rash,"crossover, N = 10",1 (10.0) patients (%)
same,Rotator cuff syndrome,"crossover, N = 10",0 patients (%)
same,Sialoadenitis,"crossover, N = 10",0 patients (%)
same,Sinus congestion,"crossover, N = 10",0 patients (%)
same,Sinusitis,"crossover, N = 10",0 patients (%)
same,Sjogren's syndrome,"crossover, N = 10",0 patients (%)
same,Skin infection,"crossover, N = 10",0 patients (%)
same,Subdural haematoma,"crossover, N = 10",0 patients (%)
same,Syncope,"crossover, N = 10",0 patients (%)
same,Tendonitis,"crossover, N = 10",0 patients (%)
same,Thoracic outlet syndrome,"crossover, N = 10",0 patients (%)
same,Tongue dry,"crossover, N = 10",0 patients (%)
same,Tooth abscess,"crossover, N = 10",0 patients (%)
same,Tooth extraction,"crossover, N = 10",0 patients (%)
same,Toothache,"crossover, N = 10",0 patients (%)
same,Upper respiratory tract infection,"crossover, N = 10",2 (20.0) patients (%)
same,Vision blurred,"crossover, N = 10",1 (10.0) patients (%)
same,Visual field defect,"crossover, N = 10",1 (10.0) patients (%)
same,Visual impairment,"crossover, N = 10",0 patients (%)
same,Vitamin B12 deficiency,"crossover, N = 10",0 patients (%)
same,Vitamin D decreased,"crossover, N = 10",0 patients (%)
same,Vitreous floaters,"crossover, N = 10",1 (10.0) patients (%)
same,Vulvovaginal candidiasis,"crossover, N = 10",0 patients (%)
same,Wrist fracture,"crossover, N = 10",0 patients (%)
same,Xanthelasma,"crossover, N = 10",0 patients (%)
